# Measurements as given in paper PMC12203432, “Multicatalysis-Enabled Multicomponent Reactions Generate a PTP1B Inhibitor” (ACS Central Science, 2025).
# Read-outs that look alike come from different tables or passages of the source.
# Assays:
# Human PTP1B = target: T1, Human PTP1B (Homo sapiens, UniProt P18031); assay: In vitro phosphatase activity assay (DiFMUP assay); type: biochemical
# T1 construct: His6 (N); made in house; host or cells: E. coli BL21 DE3
# T1 sequence (P18031 1-435): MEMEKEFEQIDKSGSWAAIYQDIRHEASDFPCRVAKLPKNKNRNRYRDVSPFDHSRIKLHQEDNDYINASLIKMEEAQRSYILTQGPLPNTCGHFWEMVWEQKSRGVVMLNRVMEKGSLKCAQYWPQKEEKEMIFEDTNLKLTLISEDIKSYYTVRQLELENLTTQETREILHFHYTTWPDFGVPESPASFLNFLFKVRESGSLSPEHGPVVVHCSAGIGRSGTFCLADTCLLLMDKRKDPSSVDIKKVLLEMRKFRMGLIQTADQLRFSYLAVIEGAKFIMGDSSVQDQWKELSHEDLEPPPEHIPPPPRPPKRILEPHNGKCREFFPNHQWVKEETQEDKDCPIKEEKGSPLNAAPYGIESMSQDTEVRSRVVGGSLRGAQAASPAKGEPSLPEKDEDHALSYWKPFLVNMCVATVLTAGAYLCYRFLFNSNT
# Description: To determine the value of CHBOs in drug discovery, we constructed a synthetically accessible library of CHBOs based on the substrate scope of the reaction we newly developed. […] To explore the relationship between inhibitor activity of 3ak against PTP1B and the stereochemistry, two enantiomers (S, S)-3ak and (R, R)-3ak were synthesized and evalutated in the DiFUMP assay (Figure a). […]
# Protein expression and purification7: Human PTP1B construct was subcloned into pET28a(+) vector, which contains an N-terminal His6-tag. BL21 DE3 E. coli cells were transformed as follows: 2 µL of plasmid(100 ng/µL) and 200 µL of DE3 cells were incubated for 30 min on ice, a 45 second heat shock at […], 2 min on ice, recovery with 800 µL SOC for 1 h at 37 ℃ followed by plating on a Kanamycin agar plate (50µg/mL).One colony was picked and used to inoculate 10 mL of LB media supplemented with kanamycin (50µg/mL).When the culture reached OD600 = 0.6, 10mL were transferred to one liter of LB media supplemented with Kanamycin (50 µg/mL) and grown at 37 ℃ to an OD600 = 0.6. Media is transferred to a 16 ℃ incubator. Then, the media was supplemented with 500 µM Isopropyl β-D-1-thiogalactopyranoside (IPTG) at OD600 = 0.8 and incubated for 16 h. Cells were centrifuged (4000 rpm, 20 min) and liquid was decanted. Cells were resuspended in lysis buffer (50 mM HEPES, pH 7.4, 150 mM KCl, 5 mM MgCl2, 5% glycerol, 1 mM phenylmethane sulfonyl fluoride (PMSF), 2 mM 2-mercaptoethanol (β-met)). Cells were lysed in a cell crusher (pressure 1000 bar), the mixed products were collected, centrifuged (12000 rpm, 4°C, 20 min), and the supernatant was left to discard the precipitate. The nickel column was first equilibrated with equilibration solution, and then the protein supernatant was up-sampled twice to bind the protein. The proteins were then gradually eluted with imidazole (10, 20, 60, 200 mM imidazole).
# The target protein-containing fractions confirmed by SDS PAGE were placed in […] MWCO protein ultrafiltration tubes and the imidazole were replaced with dialysis buffer (20 mM HEPES, 150 mM KCl, 1 mM MgCl2). After the imidazole was removed cleanly, an equal volume of glycerol was added as a protective solution. When concentration was determined to be greater than or equal to 1 mg /mL, protein was frozen with liquid nit rogen. Protein was then stored in a -80 ℃ freezer.
# In Vitro Phosphatase Activity Assays8:Incubate 1 nM purified PTP1B protein with positive control or compound to be tested in reaction buffer (25 mM Bis-Tris propane pH 7.5, […]
# 50 mM NaCl, 2 mM EDTA, 2 mM DTT) for 10 min at 37°C in a total volume of 90 μL. Add 10 μL of substrate buffer containing DiFMUP (final concentration of 10 μM) to the reaction buffer […]
# (§1) The fluorescence intensity at 455 nm was read using a multifunctional reader with 358 nm as the excitation light, and the measured fluorescence value was used to calculate the inhibition rate of the enzyme activity by the sample over the value of the blank wells. The IC50 values of the compounds were calculated by Graphpad Prism 7.0, using a non-linear fit of the inhibition rate to the concentration of the inhibitor. […]
# MB231 cells = assay: Cellular anti-cancer immunity assay (cancer cell growth inhibition with or without IFNγ, CCK8); type: cell-based; details: MB231 cell line; 0.5 ng/ml IFNγ or medium alone; 3 days
# Description: We further evaluated (S, S)-3ak with a cellular anticancer immunity assay. The assay measures the inhibition of cancer cell growth by compounds with or without cytokine IFNγ. , The synergy of testing compounds and IFNγ in inhibiting cancer cells implicates the testing compound contributes anticancer immunity. The synergy index is defined by the formula index = (IC50 ^IFNγ– – IC50 ^IFNγ+)/IC50 ^IFNγ+. […] In other words, we identified (S, S)-3ak as a promising PTP1B inhibitor, preparing for the coming hit-lead-candidate optimization.
# as §1, with “50 mM NaCl, 2 mM EDTA, 2 mM DTT) for 10 min at 37°C in a total volume of 90 μL. […] The fluorescence” for “The fluorescence”
# Cellular anti-cancer immunity assay9: MB231 cells were seeded at a density of 5000 cells per well in a 96-well plate and incubated at 37 °C. […] PTP1B inhibitors, including Osunprotafib as the positive control, were added, and cell confluence was monitored for 3 days. […]
# [1] = PTP1B lC50 (μM), DiFMUP assay at room temperature, positive control ABBV-CLS-484, negative control DMSO
# [2] = DiFMUP assay at room temperature, positive control ABBV-CLS-484, negative control DMSO, read-out: PTP1B lC50
# [3] = DiFMUP assay at room temperature, positive control ABBV-CLS-484, negative control DMSO
smiles,measurement,setting,value
O=C1O[C@@H]([C@@]2(O)C(=O)N(Cc3ccccc3)c3ccccc32)C=C1c1ccccc1 [6a],IC50,Human PTP1B,10 to 30 µM
same,IC50,Human PTP1B; [1],29.7 ± 0.56 µM
Cc1ccc(C2=C[C@H]([C@@]3(O)C(=O)N(Cc4ccccc4)c4ccccc43)OC2=O)cc1 [6ab],IC50,Human PTP1B; [2],6.68 ± 0.88 µM
Cc1ccc(C2=C[C@H]([C@@]3(O)C(=O)N(Cc4ccccc4)c4cccc(Br)c43)OC2=O)cc1 [6ac],PTP1B lC50,Human PTP1B; [3],9.13 ± 0.62 µM
COc1ccc(C2=C[C@H]([C@@]3(O)C(=O)N(Cc4ccccc4)c4ccccc43)OC2=O)cc1 [6ad],PTP1B lC50,Human PTP1B; [3],7.82 ± 1.44 µM
COc1ccc(C2=C[C@H]([C@@]3(O)C(=O)N(Cc4ccccc4)c4cccc(Br)c43)OC2=O)cc1 [6ae],PTP1B lC50,Human PTP1B; [3],11.17 ± 2.87 µM
O=C1OC(C2(O)C(=O)N(Cc3ccccc3)c3cccc(Br)c32)C=C1c1ccc2c(c1)OCO2 (stereo not drawn) [6ah],IC50,Human PTP1B,0.29 to 1.58 µM
same,IC50,Human PTP1B; [1],0.92 ± 0.18 µM
COc1ccc(C2=C[C@H]([C@@]3(O)C(=O)N(Cc4ccccc4)c4cccc(Br)c43)OC2=O)cc1OC [6ai],PTP1B lC50,Human PTP1B; [3],22.65 ± 0.75 µM
O=C1O[C@@H]([C@@]2(O)C(=O)Nc3ccccc32)C(c2ccccc2)=C1c1ccccc1 [6am],PTP1B lC50,Human PTP1B; [3],4.03 ± 0.45 µM
CC1CCC(C(C)C)C(OC(=O)c2ccc(C3=C(c4ccccc4)C(=O)OC3C3(O)C(=O)Nc4ccccc43)cc2)C1 (stereo not drawn) [6au],IC50,Human PTP1B,0.29 to 1.58 µM
same,IC50,Human PTP1B; [1],1.56 ± 0.24 µM
O=C1O[C@@H]([C@@]2(O)C(=O)Nc3ccccc32)C=C1c1ccccc1 [6b],PTP1B lC50,Human PTP1B; [3],6.93 ± 0.77 µM
O=C1O[C@@H]([C@@]2(O)C(=O)N(Cc3ccccc3)c3cccc(Cl)c32)C=C1c1ccccc1 [6d],IC50,Human PTP1B,10 to 30 µM
same,IC50,Human PTP1B; [1],17.8 ± 1.2 µM
O=C1O[C@@H]([C@@]2(O)C(=O)N(Cc3ccccc3)c3cccc(Br)c32)C=C1c1ccccc1 [6e],IC50,Human PTP1B; [2],2.1 ± 0.31 µM
O=C1O[C@@H]([C@@]2(O)C(=O)N(Cc3ccccc3)c3cccc(I)c32)C=C1c1ccccc1 [6f],PTP1B lC50,Human PTP1B; [3],8.17 ± 1.06 µM
Cc1ccc2c(c1Br)[C@@](O)([C@H]1C=C(c3ccccc3)C(=O)O1)C(=O)N2Cc1ccccc1 [6g],PTP1B lC50,Human PTP1B; [3],8.13 ± 0.06 µM
O=C1O[C@@H]([C@@]2(O)C(=O)N(Cc3ccccc3)c3ccc(Cl)c(Cl)c32)C=C1c1ccccc1 [6i],IC50,Human PTP1B; [2],3.02 ± 0.22 µM
O=C1O[C@@H]([C@@]2(O)C(=O)N(Cc3ccccc3)c3ccc(Cl)cc32)C=C1c1ccccc1 [6j],PTP1B lC50,Human PTP1B; [3],15.17 ± 1.02 µM
Cc1ccc2c(c1)C(O)(C1C=C(c3ccccc3)C(=O)O1)C(=O)N2Cc1ccccc1 (stereo not drawn) [6k],IC50,"Human PTP1B; read-out: PTP1B lC50, DiFMUP assay at room temperature, positive control ABBV-CLS-484, negative control DMSO",9.08 ± 0.12 µM
COc1ccc2c(c1)[C@@](O)([C@H]1C=C(c3ccccc3)C(=O)O1)C(=O)N2Cc1ccccc1 [6l],PTP1B lC50,Human PTP1B; [3],21.65 ± 1.48 µM
COc1ccc2c(c1)N(Cc1ccccc1)C(=O)[C@]2(O)[C@H]1C=C(c2ccccc2)C(=O)O1 [6p],PTP1B lC50,Human PTP1B; [3],8.23 ± 0.91 µM
O=C1O[C@@H]([C@@]2(O)C(=O)N(Cc3ccc(C(=O)NC45CC6CC(CC(C6)C4)C5)cc3)c3cccc(Br)c32)C=C1c1ccccc1 [6s],PTP1B lC50,Human PTP1B; [3],2.11 ± 0.22 µM
CC1(C)[C@H]2CC=C(CCOC(=O)c3ccc(CN4C(=O)[C@](O)([C@H]5C=C(c6ccccc6)C(=O)O5)c5c(Br)cccc54)cc3)[C@@H]1C2 [6u],PTP1B lC50,Human PTP1B; [3],0.29 ± 0.02 µM
"O=C1O[C@@H]([C@@]2(O)C(=O)N(Cc3ccccc3)c3cccc(Br)c32)C=C1c1ccc2ccccc2c1 [(R, R)-3ak]",IC50,Human PTP1B,3.31 ± 0.2 µM
"O=C1O[C@H]([C@]2(O)C(=O)N(Cc3ccccc3)c3cccc(Br)c32)C=C1c1ccc2ccccc2c1 [(S, S)-3ak]",synergy index = (IC50 IFNγ− – IC50 IFNγ+)/IC50 IFNγ+,MB231 cells,3.49
same,IC50,Human PTP1B,0.81 ± 0.1 µM
same,"potency relative to the enantiomer (R, R)-3ak",Human PTP1B; DiFMUP assay,3 fold
same,IC50 against PTP1B,"Human PTP1B; DiFMUP assay, values in text and figure",submicromolar
